The results in this text go back to patent publication US10457707B2, “Substituted urea depsipeptide analogs as activators of the CLPP endopeptidase” (priority 2015, dated 2019).

Type in all cases: cell-based
The test system of assay [1] is Staphylococcus aureus, USA 300. Put plainly: Minimal inhibitory concentration assay. As to conditions: USA300, read-out: Minimal Inhibitory Concentrations S. aureus USA 300. As for the experimental part:
(§1) It is understood, that in various aspects, the MIC is determined by a microbroth dilution method. In a further aspect, the MIC is determined by a microbroth dilution method using Staphylococcus aureus, ATCC 29213. In a still further aspect, the MIC is determined by a microbroth dilution method using Staphylococcus aureus, NRS70. In a yet further aspect, the MIC is determined by a microbroth dilution method using Streptococcus pyogenes, ATCC 700294. In an even further aspect, the MIC is determined by a microbroth dilution method using Streptococcus pneumoniae, DAW27. In a still further aspect, the MIC is determined by a microbroth dilution method using Bacillus subtilis, ATCC 23857. In a yet further aspect, the MIC is determined by a microbroth dilution method using Enterococcus faecalis, ATCC 33186. In an even further aspect, the MIC is determined using Staphylococcus aureus, USA 300. In a still further aspect, the MIC is determined using Streptococcus pneumoniae, R6. In a further aspect, the MIC is determined using Staphylococcus aureus, USA 300 and compared to the MIC determined using Staphylococcus aureus, USA 300 wherein ClpP is inactivated, thus allowing confirmation that killing is via a ClpP-dependent pathway.
(§2) Minimal inhibitory concentrations (“MICs”) were determined using the microbroth dilution method according to Clinical Laboratory Standards Institute (CLSI; National, C.F. C. L. S., Methods for Dilution Antimicrobial Susceptibility Tests for Bacteria Grow aerobically-Seventh Edition: Approved Standard M7-A7, CLSI, Wayne, Pa., USA, 2008) and were read by visual inspection. Two fold serial dilutions of test compound in 100 μL of the appropriate broth media were first prepared in 96-well round bottom microtiter plates (Nalgene Nunc International, Rochester, N.Y., USA). An equivalent volume (100 μL) of bacterial broth inocula containing approximately 10^5 bacterial cfu/mL was added to each well to give final concentrations of test compound starting at 200 μM. The plates were then incubated aerobically at 37° C. All strains were incubated overnight. After incubations, in all cases the MIC was recorded as the lowest concentration of drug that prevented bacterial growth. The bacterial strains for which MIC was determined as described in Table 4.

In assay [2] the test system is Staphylococcus aureus, USA 300 wherein ClpP is inactivated. Put plainly: Minimal inhibitory concentration assay. As for the experimental part:
as §1, §2

Assay [3] deals with Streptococcus pyogenes, ATCC 700294. Put plainly: Minimal inhibitory concentration assay (microbroth dilution). As to conditions: Streptococcus pyogenes, ATCC700294; read-out: Minimal Inhibitory Concentrations S. pyogenes ATCC 700294. As for the experimental part: as §1
Minimal inhibitory concentrations (“MICs”) were determined using the microbroth dilution method according to Clinical Laboratory Standards Institute (CLSI; National, C.F. C. L. S., Methods for Dilution Antimicrobial Susceptibility Tests for Bacteria Grow aerobically-Seventh Edition: Approved Standard M7-A7, CLSI, Wayne, Pa., USA, 2008) and were read by visual inspection. Two fold serial dilutions of test compound in 100 μL of the appropriate broth media were first prepared in 96-well round bottom microtiter plates (Nalgene Nunc International, Rochester, N.Y., USA). […] The plates were then incubated aerobically at 37° C. All strains were incubated overnight. After incubations, in all cases the MIC was recorded as the lowest concentration of drug that prevented bacterial growth. The bacterial strains for which MIC was determined as described in Table 4.

Assay [4] has as its system Bacillus subtilis, ATCC 23857. The description is as above. As to conditions: Bacillus subtilis, ATCC23857; read-out: Minimal Inhibitory Concentrations B. subtilis ATCC 23857. As for the experimental part:
as §1, §2

The test system of assay [5] is Staphylococcus aureus, NRS70. The assay is described as above. As to conditions: Staphylococcus aureus, NRS70; read-out: Minimal Inhibitory Concentrations S. aureus NRS70. As for the experimental part: as §1, §2
Assay [6] deals with Staphylococcus aureus, ATCC 29213. The assay is described as above. As to conditions: ATCC29213, read-out: Minimal Inhibitory Concentrations S. aureus ATCC 29213. The procedure:
as §1, §2

Values after ≈ are worked out from the molar mass of the structure shown. *1 amine or outer side, *2 acyl side, *3 side chain or, on linkers, in order; H or OH if unused. Where a SMILES comes first, the peptide text is derived from it. Bridges are numbered along the chain shown (N, C = ends). [ ]: non-standard residue; d: D form. The star is where a group is joined. ξ: configuration not given here. Phe(3,5-F2) = N[C@@H](Cc1cc(F)cc(F)c1)C(=O)O; NH(4-OCF3-phenyl) = FC(F)(F)Oc1ccc(N*)cc1; ξPro(4R-OH) = O=C(O)C1C[C@@H](O)CN1; ξPro(4S-Me) = C[C@@H]1CNC(C(=O)O)C1; ξPro(4R-Me) = C[C@H]1CNC(C(=O)O)C1; NH(4-Et-phenyl) = CCc1ccc(N*)cc1; aThr = C[C@H](O)[C@H](N)C(=O)O; NMeA = CN[C@@H](C)C(=O)O; ξPip = O=C(O)C1CCCCN1; CO = O=C([*:1])[*:2]; ξP = O=C(O)C1CCCN1

Consider `C[C@@H]1NC(=O)[C@H](C)N(C)C(=O)C2CCCN2C(=O)[C@@H](NC(=O)[C@H](Cc2cc(F)cc(F)c2)NC(=O)Nc2ccc(OC(F)(F)F)cc2)[C@H](C)OC(=O)C2CCCN2C1=O` (stereo partly drawn) [Compound 27, (2S)-3-(3,5-difluorophenyl)-N-((6S,9S,11aS,17S,18S)-6,9,10,18-tetramethyl-5,8,11,16,20-pentaoxohexadecahydro-1H,5H,16H-dipyrrolo[2,1-c:2′,1′-l][1]oxa[4,7,10,13]tetraazacyclohexadecin-17-yl)-2-(3-(4-(trifluoromethoxy)phenyl)ureido)propanamide] ({NH(4-OCF3-phenyl)-CO}-[Phe(3,5-F2)][aThr][ξP][NMeA]A[ξP]; ester 2-C), for which the MIC in assay [1] was found to be 0.2 µM (≈ 0.168 µg/mL); in assay [3], 0.23 µM (≈ 0.193 µg/mL); in assay [4], 0.02 µM (≈ 0.0168 µg/mL); in assay [5], 0.2 µM (≈ 0.168 µg/mL); in assay [6], 0.2 µM (≈ 0.168 µg/mL). In addition, the “Minimal Inhibitory Concentrations S. aureus USA 300 ΔClpP” value in assay [2] worked out at 100 µM.
Consider `CCc1ccc(NC(=O)N[C@@H](Cc2cc(F)cc(F)c2)C(=O)N[C@@H]2C(=O)N3CCCC3C(=O)N(C)[C@@H](C)C(=O)N[C@@H](C)C(=O)N3CCCC3C(=O)O[C@H]2C)cc1` (stereo partly drawn) [Compound 29, (2S)-3-(3,5-difluorophenyl)-2-(3-(4-ethylphenyl)ureido)-N-((6S,9S,11aS,17S,18S)-6,9,10,18-tetramethyl-5,8,11,16,20-pentaoxohexadecahydro-1H,5H,16H-dipyrrolo[2,1-c:2′,1′-l][1]oxa[4,7,10,13]tetraazacyclohexadecin-17-yl)propanamide] ({NH(4-Et-phenyl)-CO}-[Phe(3,5-F2)][aThr][ξP][NMeA]A[ξP]; ester 2-C), for which the MIC stood at 0.2 µM (≈ 0.156 µg/mL) in assay [1]; 0.13 µM (≈ 0.102 µg/mL) in assay [3]; 0.01 µM (≈ 0.00782 µg/mL) in assay [4]; 0.2 µM (≈ 0.156 µg/mL) in assay [5]; 0.2 µM (≈ 0.156 µg/mL) in assay [6]. In assay [2], the “Minimal Inhibitory Concentrations S. aureus USA 300 ΔClpP” value stood at 100 µM.
Take `CCc1ccc(NC(=O)N[C@@H](Cc2cc(F)cc(F)c2)C(=O)N[C@@H]2C(=O)N3CCCC3C(=O)N(C)[C@@H](C)C(=O)N[C@@H](C)C(=O)N3C[C@@H](C)CC3C(=O)O[C@H]2C)cc1` (stereo partly drawn) [Compound 30, (S)-3-(3,5-difluorophenyl)-2-(3-(4-ethylphenyl)ureido)-N-((2S,6S,9S,11aS,17S,18S,20aS)-2,6,9,10,18-pentamethyl-5,8,11,16,20-pentaoxohexadecahydro-1H,5H,16H-dipyrrolo[2,1-c:2′,1′-L][1]oxa[4,7,10,13]tetraazacyclohexadecin-17-yl)propanamide] ({NH(4-Et-phenyl)-CO}-[Phe(3,5-F2)][aThr][ξP][NMeA]A[ξPro(4S-Me)]; ester 2-C): the MIC in assay [1] was 0.1 µM (≈ 0.0796 µg/mL); in assay [3], 0.03 µM (≈ 0.0239 µg/mL); in assay [4], 0.001 µM (≈ 0.000796 µg/mL); in assay [5] it was 0.2 µM (≈ 0.159 µg/mL); in assay [6] it was 0.1 µM (≈ 0.0796 µg/mL). Besides, the “Minimal Inhibitory Concentrations S. aureus USA 300 ΔClpP” value in assay [2] stood at 50 µM.
Consider `C[C@H]1CC2C(=O)O[C@@H](C)[C@H](NC(=O)[C@H](Cc3cc(F)cc(F)c3)NC(=O)Nc3ccc(OC(F)(F)F)cc3)C(=O)N3C[C@H](O)CC3C(=O)N(C)[C@@H](C)C(=O)N[C@@H](C)C(=O)N2C1` (stereo partly drawn) [Compound 32, (S)-3-(3,5-difluorophenyl)-N-((2S,6S,9S,11aS,13R,17S,18S,20aS)-13-hydroxy-2,6,9,10,18-pentamethyl-5,8,11,16,20-pentaoxohexadecahydro-1H,5H,16H-dipyrrolo[2,1-c:2′,1′-l][1]oxa[4,7,10,13]tetraazacyclohexadecin-17-yl)-2-(3-(4-(trifluoromethoxy)phenyl)ureido)propanamide] ({NH(4-OCF3-phenyl)-CO}-[Phe(3,5-F2)][aThr][ξPro(4R-OH)][NMeA]A[ξPro(4S-Me)]; ester 2-C), for which the MIC in assay [1] was determined as 0.39 µM (≈ 0.338 µg/mL); in assay [3], 0.2 µM (≈ 0.174 µg/mL); in assay [4], 0.39 µM (≈ 0.338 µg/mL); in assay [5] it was 0.1 µM (≈ 0.0868 µg/mL); in assay [6] it was 0.1 µM (≈ 0.0868 µg/mL). Further, the “Minimal Inhibitory Concentrations S. aureus USA 300 ΔClpP” value in assay [2] worked out at 100 µM.
With `C[C@@H]1CC2C(=O)O[C@@H](C)[C@H](NC(=O)[C@H](Cc3cc(F)cc(F)c3)NC(=O)Nc3ccc(OC(F)(F)F)cc3)C(=O)N3CCCC3C(=O)N3CCCCC3C(=O)N[C@@H](C)C(=O)N2C1` (stereo partly drawn) [Compound 40, (S)-3-(3,5-difluorophenyl)-2-(3-(4-(trifluoromethoxy)phenyl)ureido)-N-((2R,6S,8aS,14aS,20S,21S,23aS)-2,6,21-trimethyl-5,8,14,19,23-pentaoxooctadecahydro-1H,5H,14H,19H-pyrido[2,1-i]dipyrrolo[2,1-c:2′,1′-L][1]oxa[4,7,10,13]tetraazacyclohexadecin-20-yl)propanamide] ({NH(4-OCF3-phenyl)-CO}-[Phe(3,5-F2)][aThr][ξP][ξPip]A[ξPro(4R-Me)]; ester 2-C), the MIC came to 0.05 µM (≈ 0.0439 µg/mL) in assay [1]; 0.4 µM (≈ 0.351 µg/mL) in assay [3]; 0.02 µM (≈ 0.0176 µg/mL) in assay [4]; 0.02 µM (≈ 0.0176 µg/mL) in assay [5]; 0.05 µM (≈ 0.0439 µg/mL) in assay [6]. Further, the “Minimal Inhibitory Concentrations S. aureus USA 300 ΔClpP” value in assay [2] stood at 25 µM.
With `C[C@H]1CC2C(=O)OC[C@H](NC(=O)[C@H](Cc3ccccc3)NC(=O)Nc3ccc(OC(F)(F)F)cc3)C(=O)N3CCCC3C(=O)N3CCCCC3C(=O)N[C@@H](C)C(=O)N2C1` (stereo partly drawn) [Compound 44, (S)—N-((2S,6S,8aS,14aS,20S,23aS)-2,6-dimethyl-5,8,14,19,23-pentaoxooctadecahydro-1H,5H,14H,19H-pyrido[2,1-i]dipyrrolo[2,1-c:2′,1′-l][1]oxa[4,7,10,13]tetraazacyclohexadecin-20-yl)-3-phenyl-2-(3-(4-(trifluoromethoxy)phenyl)ureido)propanamide], the MIC was 0.8 µM (≈ 0.662 µg/mL) in assay [1]; 0.2 µM (≈ 0.166 µg/mL) in assay [3]; 0.1 µM (≈ 0.0828 µg/mL) in assay [4]; 0.4 µM (≈ 0.331 µg/mL) in assay [5]; 0.4 µM (≈ 0.331 µg/mL) in assay [6]. For the same compound, the “Minimal Inhibitory Concentrations S. aureus USA 300 ΔClpP” value in assay [2] came to 50 µM.
`C[C@H]1CC2C(=O)OC[C@H](NC(=O)[C@H](Cc3cc(F)cc(F)c3)NC(=O)Nc3ccc4c(c3)OCO4)C(=O)N3CCCC3C(=O)N3CCCCC3C(=O)N[C@@H](C)C(=O)N2C1` (stereo partly drawn) [Compound 46, (S)-2-(3-(benzo[d][1,3]dioxol-5-yl)ureido)-3-(3,5-difluorophenyl)-N-((2S,6S,8aS,14aS,20S,23aS)-2,6-dimethyl-5,8,14,19,23-pentaoxooctadecahydro-1H,5H,14H,19H-pyrido[2,1-i]dipyrrolo[2,1-c:2′,1′-l][1]oxa[4,7,10,13]tetraazacyclohexadecin-20-yl)propanamide]: the MIC in assay [1] was 3.1 µM (≈ 2.55 µg/mL); in assay [3], 0.8 µM (≈ 0.659 µg/mL); in assay [4], 0.4 µM (≈ 0.33 µg/mL); in assay [5] it was 1.6 µM (≈ 1.32 µg/mL); in assay [6], 3.1 µM (≈ 2.55 µg/mL). Also, the “Minimal Inhibitory Concentrations S. aureus USA 300 ΔClpP” value in assay [2] came to 200 µM.
